The assay has as its target T1, AHR2-2 (tomcod AHR2) (Microgadus tomcod, UniProt B6E9W5).
T1 sequence (B6E9W5 1-1104): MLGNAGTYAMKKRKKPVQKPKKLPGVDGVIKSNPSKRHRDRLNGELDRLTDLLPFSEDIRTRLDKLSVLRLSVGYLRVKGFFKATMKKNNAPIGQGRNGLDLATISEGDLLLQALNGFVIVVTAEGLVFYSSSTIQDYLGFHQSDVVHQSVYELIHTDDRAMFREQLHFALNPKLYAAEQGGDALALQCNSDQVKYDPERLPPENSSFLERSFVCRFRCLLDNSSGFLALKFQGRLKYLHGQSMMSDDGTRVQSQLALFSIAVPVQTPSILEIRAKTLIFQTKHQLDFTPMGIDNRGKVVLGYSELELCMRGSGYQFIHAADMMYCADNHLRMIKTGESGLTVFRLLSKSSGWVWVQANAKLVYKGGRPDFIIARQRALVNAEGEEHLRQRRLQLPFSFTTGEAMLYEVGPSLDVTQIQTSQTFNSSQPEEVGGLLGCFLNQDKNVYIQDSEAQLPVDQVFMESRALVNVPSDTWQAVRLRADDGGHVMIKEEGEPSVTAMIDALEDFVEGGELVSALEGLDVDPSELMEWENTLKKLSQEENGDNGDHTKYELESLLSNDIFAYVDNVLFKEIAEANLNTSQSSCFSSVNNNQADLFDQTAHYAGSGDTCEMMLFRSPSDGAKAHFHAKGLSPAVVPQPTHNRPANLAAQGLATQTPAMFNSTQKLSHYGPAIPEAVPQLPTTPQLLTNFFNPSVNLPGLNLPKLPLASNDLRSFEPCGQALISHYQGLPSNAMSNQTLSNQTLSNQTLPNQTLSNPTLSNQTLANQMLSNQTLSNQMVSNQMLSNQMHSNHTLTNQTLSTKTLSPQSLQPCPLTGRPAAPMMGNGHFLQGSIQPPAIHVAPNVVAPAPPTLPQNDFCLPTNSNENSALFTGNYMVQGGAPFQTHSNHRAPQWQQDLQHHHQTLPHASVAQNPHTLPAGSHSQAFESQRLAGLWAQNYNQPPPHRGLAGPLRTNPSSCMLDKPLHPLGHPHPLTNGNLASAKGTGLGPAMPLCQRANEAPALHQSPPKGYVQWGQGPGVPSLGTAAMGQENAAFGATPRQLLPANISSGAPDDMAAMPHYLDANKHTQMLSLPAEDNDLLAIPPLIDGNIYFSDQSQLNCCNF
Briefly: saturation binding of [3H]TCDD, velocity sedimentation on sucrose gradients. Conditions: labelled compound; 0.1 to 12 nM [3H]TCDD; apparent equilibrium constant.

For the compound `Clc1cc2c(cc1Cl)Oc1cc(Cl)c(Cl)cc1O2` [TCDD, 2,3,7,8-tetrachlorodibenzo-p-dioxin], the Kd amounted to 1.27 nM.

Values taken from article PMC3246799 (Science (New York, N.Y.), 2011).
